20 compounds from ChEMBL document CHEMBL5537109, “Natural products as potential lead compounds to develop new antiviral drugs over the past decade” (Eur J Med Chem, 2023) can be followed below.

SMILES strings stand for the structures. Values after ≈ are worked out from the molar mass of the structure shown.

In general, EC50 refers to the concentration that produces a half-maximal response. One may read the CC50 as the concentration at which the toxic effect on the cells reaches its halfway point. For orientation: IC50 means the concentration at which inhibition is half-maximal.

Data set [1] concerns Human immunodeficiency virus 1. The data set can be described thus: Antiviral activity against HIV-1 3B harboring reverse transcriptase infected in human MT4 cells assessed as protection against virus-induced cytopathic effect incubated for 5 days by MTT assay. Particulars: Human immunodeficiency virus 1, 3B, MT4, 120 h. Format: functional, organism-based.
A short description of data set [2]: Cytotoxicity against human C8166 cells assessed as inhibition of cell growth by MTT assay. The format is toxicity, cell-based. (In general: Tetrazolium dyes change colour on reduction, which living cells bring about.)
Data set [3] concerns Human immunodeficiency virus 1. The data set can be described thus: Antiviral activity against HIV-1 3B harboring reverse transcriptase infected in human C8166 cells assessed as protection against virus-induced cytopathic effect incubated for 5 days by MTT assay. The format is functional, organism-based. Particulars: Human immunodeficiency virus 1, 3B, C8166, 120 h. (In general: Protection from cytopathic effect is a common read-out in antiviral testing.)

Data set [4] has as its system Human immunodeficiency virus 1. In words: Antiviral activity against HIV-1 3B infected in human MT4 cells assessed as inhibition of viral replication incubated for 5 days by MTT assay. The format is functional, organism-based. Particulars: Human immunodeficiency virus 1, 3B, MT4, 120 h.
A short description of data set [5]: Cytotoxicity against human C8166 cells assessed as inhibition of cell growth incubated for 48 hrs by MTT assay. The format is toxicity, cell-based.
Data set [6] addresses Human immunodeficiency virus type 1 reverse transcriptase (Human immunodeficiency virus 1, UniProt Q72547). The data set can be described thus: Inhibition of HIV1 reverse transcriptase.
For data set [7], the system named is Human immunodeficiency virus 1. In words: Anti-HIV activity against HIV-1 IIIB infected in human C8166 cells assessed as inhibition of virus-induced cytopathic effect by MTT assay. The format is functional, organism-based. Particulars: Human immunodeficiency virus 1, IIIB.
Data set [8] is described as follows: Inhibition of Influenza A virus A/California/04/2009 (H1N1) N-terminal his tagged domain of PA endonuclease expressed in Escherichia coli BL21 (DE3) cells.
Data set [9] in a line: Cytotoxicity against MDCK cells assessed as inhibition of cell growth incubated for 48 hrs by MTT assay. Particulars: dog. The format is toxicity, cell-based, Canis lupus familiaris.
The subject of data set [10] is Influenza A virus. In words: Antiviral activity against influenza A virus A/Hong Kong/1/68 (HK1, H3N2) infected in dog MDCK cells assessed as cytopathic effect. Format: functional, organism-based.
Data set [11] concerns Influenza A virus. The data set can be described thus: Antiviral activity against influenza A virus H5N1 infected in dog MDCK cells assessed as viral growth inhibition. Format: functional, organism-based.
The test system of data set [12] is Influenza A virus. In words: Antiviral activity against influenza A virus H1N1(A/PR/8/34) infected in MDCK cells assessed as inhibition of cytopathic effect incubated for 48 hrs by MTT assay. Format: functional, organism-based.
Another data set relates to Human alphaherpesvirus 1. In words: Antiviral activity against HSV-1 assessed as inhibition of viral growth. Format: functional, organism-based.

Regarding `C=CC(C)(C)c1cc2cc(CC(=O)C(C)C)c(OC)cc2oc1=O`, the EC50 in [1] worked out at 0.12 µM. Moreover, the CC50 in [2] was over 200 µM.

With `COc1cc2oc(CO)cc(=O)c2c(O)c1CCC(C)(C)O`, in data set [3], the EC50 is 0.09 µM. Further, the CC50 in [2] was over 200 µM.

As for `C=CC(C)(C)c1cc2cc(C[C@@H](O)C(C)(C)O)c(O)cc2oc1=O`, the EC50 in data set [3] came to 0.68 µM. For the same compound, in data set [2], the CC50 was over 200 µM.

In the case of `C=CC(C)(C)c1cc2cc(C[C@@H](OCC)C(C)(C)O)c(OC)cc2oc1=O`, the EC50 in [1] came out at 0.42 µM. Also, the CC50 in data set [2] is over 200 µM.

In the case of `CC(C)=CCc1c(O)cc2oc(CO)cc(=O)c2c1O`, in data set [3], the EC50 was found to be 0.67 µM. The CC50 in data set [2] is over 200 µM.

For the compound `COc1cc2oc(CO)cc(=O)c2c(OC)c1CC=C(C)C`, the EC50 in data set [3] was 1.32 µM. Further, the CC50 in data set [2] was over 200 µM.

Turning to `C=CC(CO)[C@@H]1C[C@H]2c3[nH]c4ccccc4c3CCN2C(=O)[C@H]1CO` (stereo partly specified), the concentration giving a half-maximal response (EC50) in [4] is 0.06 µM.

Consider `COc1c2c(cc3oc(CO)cc(=O)c13)OC(C)(C)C=C2`, for which the EC50 in data set [3] stood at 9.72 µM. The CC50 in [2] was over 200 µM.

In the case of `C=CC(C)(C)c1cc2cc3c(cc2oc1=O)O[C@H](C(C)(C)O)[C@H]3O`, in data set [3], the EC50 amounted to 0.17 µM. Also, the CC50 in [2] is over 200 µM.

Turning to `C=CC(CO)[C@@H]1C[C@H]2c3[nH]c4ccccc4c3CCN2C(=O)[C@@H]1CO` (stereo partly specified), the half-maximal cytotoxic concentration (CC50) at 48 h in [5] is over 200 µM. Further, the EC50 in [4] was 0.23 µM.

For `COc1cc2oc(CO)cc(=O)c2c(O)c1CC=C(C)C`, the EC50 in data set [3] is 0.96 µM. Moreover, in data set [2], the CC50 was over 200 µM.

Take `C=CC(C)(C)c1cc2cc(C[C@@H](OC)C(C)(C)O)c(OC)cc2oc1=O`: in [1], the EC50 was found to be 0.33 µM. Besides, in data set [2], the CC50 is over 200 µM.

`COc1cc(C)c(Cc2cc3c([nH]c4ccccc43)c3c2OC(C)(C)C=C3)c2c1[nH]c1ccccc12` gave an IC50 in [6] of 0.0186 µM. Moreover, the CC50 at 48 h in data set [5] is over 200 µM.

As to `COc1cccc2c1-c1c3c(c(OC)c4cc[n+]([O-])c(c14)C2=O)OCO3`, the EC50 in [7] is 2.18 µM. The CC50 at 48 h in data set [5] worked out at 56.6 µM.

For the compound `O=C(OC[C@H]1O[C@@H](Oc2ccc(O)cc2C(=O)O)[C@H](OC(=O)c2cc(O)c(O)c(O)c2)[C@@H](O)[C@@H]1O)c1cc(O)c(O)c(O)c1`, the IC50 in [8] was 27.6 µM; with Influenza A virus [11], 21.1 µM. In addition, in [9], the CC50 at 48 h worked out at 835 µM. Moreover, the EC50 was determined as 31.2 µM with Influenza A virus [10] and 32.1 µM with Influenza A virus [12].

For the compound `COc1cc(OC)c([N+](=O)[O-])c2c1-c1c3c(c(OC)c4c1[C@@H](C2)NCC4)OCO3`, the EC50 in data set [7] was 1.93 µM. Further, in data set [5], the CC50 at 48 h is 28.7 µM.

For the compound `C/C=C1/C[N+]23CCc4c([nH]c5ccccc45)[C@@H]2C[C@H]1C3C(=O)[O-]` (stereo partly specified), the EC50 with Human alphaherpesvirus 1 is 1.09 µg/mL (≈ 3.53 µM).

`C[C@H]1CC(=O)[C@@H]2CCCN(C)CCCC(=O)/C(=N\O)C[C@@H]2C1`: the EC50 in [7] came to 52.9 µg/mL. Also, in [5], the CC50 at 48 h was over 200 µM.

On to `CCCCCC(O)/C=C/C=C\CCCCCC[C@@]1(O)C[C@H](C(=O)OC)[C@H](C(C)=O)O1` (stereo partly specified), for which the EC50 in [3] turned out to be 0.08 µM. Besides, in [2], the CC50 is over 200 µM.

On to `C=C1[C@H]2O[C@@H](OC)[C@H]3[C@@H]1[C@@H]1O[C@@H]1[C@@]3(CO)O2`, for which the IC50 in data set [6] is 7.23 µM. The CC50 in data set [2] was over 200 µM.
